Data as given in US20120003661A1, “METHODS AND DEVICES FOR THE SELECTIVE DETECTION OF MICROORGANISMS” (C3 JIAN, INC., priority 2010, published 2012).
Entries after “also recorded” stand apart in the source; their conditions may differ. Where two headings read alike, the source gives them in different places.

System: bacteria, fungi, and/or yeasts
Assay type: binding
[1] = microorganism(s) that the targeting peptide binds, as listed in Table 2
[2] = microorganism(s) listed as target(s) of the targeting peptide, wrapped target lists given cell by cell
[3] = microorganism(s) the targeting peptide binds, as listed in Table 2

Substance | Target(s) [2] | Target(s) [3] | further results
PF-C136 (LILSYQASVYPLFAYLCQQKDY) | – | – | Target(s) [1]: A. naeslundii, F. nucleatum, P. gingivalis,; also recorded: S. mutans, T. denticola
PF-S007 (VVAGVVLLTALAVGSKRKEKKQIKEIQRLLAATR) | – | – | Target(s) [1]: S. epidermidis, MRSA
TT-305 (ARNALNMRDVPVDAAIIGIIDGMDEE) | F. nucleatum | – | –
PF-056 (AEQLFGKQKQRGVDLFLNRLTIILSILFFVLMICISYLGM) | S. epidermidis, M. luteus, P. mirabilis,; also recorded: E. coli, P. aeruginosa,; also recorded: C. albicans, MRSA, S. pneumoniae,; also recorded: E. faecalis, C. jeikeium | – | –
1T-83 (QKPRKNETFIGYIQRYDIDGNGYQSLPCPQN) | – | S. pneumoniae | –
1T-173 (LFRKEDQEHVLL) | – | A. naeslundii, F. nucleatum, P. gingivalis,; also recorded: S. gordonii, S. mitis,; also recorded: S. mutans, S. oralis, S. salivarious,; also recorded: S. sanguinis | –
1T-240 (VILGNGISNIAQTLGQLPNIAWVWIYMVLIAALLEESNVC) | – | A. naeslundii, F. nucleatum, P. gingivalis,; also recorded: S. epidermidis, S. gordonii,; also recorded: S. mitis, S. mutans, S. oralis,; also recorded: S. salivarious, S. sanguinis | –
1T-182 (LTASICRQWNDNSTPYQR) | – | A. naeslundii, F. nucleatum, P. gingivalis,; also recorded: T. denticola, S. gordonii,; also recorded: S. mitis, S. mutans, S. oralis,; also recorded: S. salivarious, S. sanguinis | –
PF-101 (DPVPERQEQACACHRTAKPGK) | S. mutans | – | –
1T-50 (HSDEPIPNILFKSDSVH) | – | P. aeruginosa | –
PF-789 (PRGAQSGHG) | – | – | Target(s) [1]: Mycobacteria spp.
PF-C142 (DFPPLSFFRRRFHAYTAPIDNFFGANPF) | – | – | Target(s) [1]: A. naeslundii, F. nucleatum, P. gingivalis,; also recorded: S. mutans, T. denticola
PF-C065 (DEERYSDSYFLKEKVFYLILALFLILFHQKYLYFLEIITI) | – | – | Target(s) [1]: A. naeslundii, F. nucleatum, P. gingivalis,; also recorded: S. mutans
1T-294 (YDKIADGVFKIGKRGVL) | T. denticola | – | –
1T-78 (FFKTIFVLILGALGVAAGLYIEKNYIDK) | – | S. pneumoniae | –
1T-170 (AYGKVFSMDIMLSENDKLIVLRISHHSAWH) | – | P. gingivalis | –
PF-C160 (AASGFTYCASNGVWHPY) | – | – | Target(s) [1]: F. nucleatum
1T-258 (TINIDDKVLDYLKKINSKAITIDLIGCAS) | A. naeslundii, F. nucleatum, P. gingivalis,; also recorded: T. denticola, S. mitis,; also recorded: S. mutans, S. oralis | – | –
PF-151 (EEYPARVPLSGEDVTEARRH) | S. epidermidis, MRSA, E. faecalis,; also recorded: C. jeikeium | – | –
1T-202 (LCRLEKLCKQFLRQDKVVTYYLMLPYKRAIEAFYQELKERS) | – | A. naeslundii, F. nucleatum, P. gingivalis,; also recorded: S. epidermidis, S. gordonii,; also recorded: S. mitis, S. mutans, S. oralis,; also recorded: S. salivarious, S. sanguinis | –
1T-279 (FVLRTKHCFY) | A. naeslundii, F. nucleatum, P. gingivalis,; also recorded: S. gordonii, S. mitis,; also recorded: S. mutans, S. oralis, S. salivarious,; also recorded: S. sanguinis | – | –
1T-59 (AVGNNLGKDNDSGHRGKKHRKHKHR) | – | S. aureus, S. epidermidis, P. aeruginosa | –
1T-58 (CDDLHALERAGKLDALLSA) | – | P. aeruginosa | –

Substance | Target(s) [2] | Target(s) [3] | further results
1T-56 (LALIGAGIWMIRKG) | – | C. xerosis, P. aeruginosa | –
PF-076 (LYQYELLSKEEYLKCTLIINQRRNEQK) | S. epidermidis, M. luteus, E. coli,; also recorded: P. aeruginosa, C. albicans,; also recorded: MRSA, S. pneumoniae, E. faecalis,; also recorded: C. jeikeium, C. jejuni | – | –
PF-009 (SKKYNHILNQENR) | yeast and hyphal forms; also recorded: M. luteus, P. mirabilis, C. albicans | – | –
PF-161 (RGRALASTATTRPARRRR) | S. epidermidis, M. luteus, E. coli,; also recorded: C. jejuni | – | –
1T-282 (ISLVFPAYT) | F. nucleatum, P. gingivalis, S. gordonii,; also recorded: S. mitis, S. mutans, S. oralis,; also recorded: S. salivarious, S. sanguinis | – | –
1T-62 (GCKGCAQRDPCAEPEPYFRLR) | – | S. epidermidis, P. aeruginosa | –
PF-002 (NDDAQ) | yeast and hyphal forms; also recorded: S. epidermidis, P. mirabilis, C. albicans,; also recorded: C. jeikeium, C. jejuni | – | –
1T-111 (GRLSRREEDPATSIILLRGAYRMAVF) | – | A. naeslundii, F. nucleatum, P. gingivalis,; also recorded: S. epidermidis, S. gordonii,; also recorded: S. mitis, S. mutans, S. oralis,; also recorded: S. salivarious, S. sanguinis | –
1T-146 (RNSADNQTKIDKIRIDISLWDEHLNIVKQGK) | – | A. naeslundii, F. nucleatum, P. gingivalis,; also recorded: T. denticola, S. gordonii,; also recorded: S. mitis, S. mutans, S. oralis,; also recorded: S. salivarious, S. sanguinis | –
1T-288 (RWVGGEPSADIYLSAKDTKT) | F. nucleatum, S. gordonii, S. salivarious,; also recorded: S. sanguinis | – | –
1T-185 (HYHFLLEFGFHKGDYLE) | – | A. naeslundii, F. nucleatum, P. gingivalis,; also recorded: T. denticola, S. gordonii,; also recorded: S. mitis, S. mutans, S. oralis,; also recorded: S. salivarious, S. sanguinis | –
1T-281 (KYEKLTKENLFIRNSGNMCVFIYFLFFG) | A. naeslundii, F. nucleatum, P. gingivalis,; also recorded: S. epidermidis, S. gordonii,; also recorded: S. mitis, S. mutans, S. oralis,; also recorded: S. salivarious, S. sanguinis | – | –
PF-067 (DLIVKVHICFVVKTASGYCYLNKREAQAAI) | S. epidermidis, M. luteus, P. mirabilis,; also recorded: E. coli, P. aeruginosa,; also recorded: C. albicans, MRSA, S. pneumoniae,; also recorded: E. faecalis, C. jeikeium,; also recorded: C. jejuni | – | –
PF-133 (GDPTAGQKPVECP) | S. epidermidis, C. jeikeium, C. jejuni,; also recorded: M. smegmatis | – | –
PF-126 (FSPEAFGIGAAGVLGSFVTGLLIGWVASLLRKAK) | S. epidermidis, M. luteus, P. mirabilis,; also recorded: E. coli, P. aeruginosa,; also recorded: C. albicans, MRSA, S. pneumoniae,; also recorded: E. faecalis, C. jeikeium,; also recorded: C. jejuni | – | –
1T-249 (VFSVLKHTTWPTRKQSWHDFISILEYSAFFALVIFIFDKLLTLGLAELLKRF) | F. nucleatum, S. sanguinis | – | –
PF-C034 (HPMPITVRSRKPGPLTAPSEH) | – | – | Target(s) [1]: S. mutans, E. coli
1T-148 (IVELDDTTILERALSMLGEANA) | – | A. naeslundii, F. nucleatum, P. gingivalis,; also recorded: T. denticola, S. gordonii,; also recorded: S. mitis, S. mutans, S. oralis,; also recorded: S. salivarious, S. sanguinis | –
1T-102 (WKRLWPARILAGHSRRRMRWMVVWRYFAAT) | – | A. naeslundii, F. nucleatum, P. gingivalis,; also recorded: S. epidermidis, S. gordonii,; also recorded: S. mitis, S. mutans, S. oralis,; also recorded: S. salivarious, S. sanguinis | –
1T-192 (ILVLLALQVELDSKFQY) | – | S. sanguinis | –
1T-16 (IDMR) | yeast and hyphal forms | P. aeruginosa | –
PF-C061 (TLNYKKMFFSVIFLLGLNYLICNSPLFFKQIEF) | – | – | Target(s) [1]: A. naeslundii, F. nucleatum, P. gingivalis,; also recorded: S. mutans, T. denticola
